# Reference: patent US20050020630A1, “Cycloalkyl and heterocycloalkyl substituted benzothiophenes as therapeutic agents” (priority 2003, published 2005)
# Target: T1, PI3Kγ (Homo sapiens, UniProt P48736)
# T1 construct: HA; made in house; host or cells: Spodoptera frugiperda (Sf9) cells, baculovirus co-infection
# Test: PI3Kγ In Vitro Kinase Assay
# Assay type: biochemical
# Details: purified recombinant p101/p110 γ protein with G protein β1/γ2 subunits; 20 μM ATP, 25 μM PIP2; 20 minutes at room temperature; radioactive PIP3 readout
# Procedure: Spodtera frugiperda cells, grown in ESF921 media, were coinfected with baculovirus expressing a glu-tagged p101 and baculovirus expressing an HA-tagged p110γ, at a 3:1 ratio of p101 baculovirus to p110γ baculovirus. Sf9 cells were grown to 1×10^7 total cells/mL in 10 L bioreactors and harvested 48-72 hours post infection. Samples of infected cells were then tested for expression of p101/p110 γ PI3 kinase by immunoprecipitation and Western Blot analysis methods (see below). To purify PI3Kγ, 4 volumes of room temperature hypotonic lysis buffer (1 mM MgCl2, 1 mM DTT, 5 mM EGTA, 1 mM Pefabloc, 0.5 μM aprotinin, 5 μM leupeptin, 2 μM pepstatin, 5 μM E64, pH 8) per gram of cell paste, was poured onto frozen cell pellets with stirring, then lysed in a nitrogen “bomb” at 400 psi (599HC […], Parr Instrument Co, Moline, Ill.). NaCl was added to 150 mM, and sodium cholate was added to 1% and mixed for another 45 minutes. The lysates were clarified by centrifugation for 25 minutes at 14,000 rpm. The lysates were then loaded over anti-glu-linked Protein-G Sepaharose beads (Covance Research Products, Richmond, Calif.) using 20 mL resin/50 g cell paste. The column was washed with 15 volumes of wash buffer (1 mM DTT, 0.2 mM EGTA, 1 mM Pefabloc, 0.5 μM aprotinin, 5 μM leupeptin, 2 μM pepstatin, 5 μM E64, 150 mM NaCl, 1% sodium cholate, pH 8). PI3Kγ was eluted with 6 column volumes of wash buffer that contain 100 μg/mL of a peptide that competes for binding of the glu tag. The column fractions with the eluted protein (determined by taking OD280 readings) were collected and dialyzed in 0.2 mM EGTA, 1 mM DTT, 1 mM Pefabloc, 5 μM leupeptin, 0.5% sodium cholate, 150 mM NaCl, and 50% glycerol, pH 8. The fractions were stored at -80° C. until further use. Spodtera frugiperda cells were coinfected with baculovirus expressing a glu-tagged G protein β1 and baculovirus expressing a G protein β2, at a 1:1 ratio of glu-tagged G protein β1 baculovirus to G protein β2 baculovirus. Sf9 cells are grown in 10 L bioreactors and harvested 48-72 hours post infection. Samples of infected cells were tested for G protein β1/β2 expression by Western Blot analysis, as described below. Cell lysates were homogenized and loaded onto a column of glu-tagged beads as in Biological Example 1 and competed off the column with a glu peptide and processed as described in Biological Example 1. The inhibitory properties of the compounds in Table 1 were assayed in an in vitro PI3K assay. In a 96-well polypropylene plate, each well was spotted with 2 μL of 50 times the desired final concentration of compound in DMSO. Purified recombinant p101/p110 γ protein (0.03 μg; 2.7 nM) and G protein β1/γ2 subunits (0.09 μg; 57.7 nM) for each reaction was combined in the assay buffer (30 mM HEPES, 100 mM NaCl, 1 mM EGTA, and 1 mM DTT). ATP and [γ-^32P-ATP] (0.09 μCi) were added to this mixture so that the final ATP concentration in the reaction was 20 μM. Lipid micelles were formed by sonicating phosphatidylinositol-4,5-diphosphate (PIP2), phosphatidylethanolamine (PE), and Na-cholate in the assay buffer for 10 minutes, adding MgCl2 and incubating on ice for 20 minutes, for final concentrations of 25 μM PIP2, 300 μM PE, 0.02% Na-cholate, and 10 mM MgCl2 in the reaction. The reactions were started by adding equal volumes lipid and enzyme mixture in a total volume of 50 μL, allowed to run for 20 minutes at room temperature, and stopped with 100 μL 75 mM H3PO4. The lipid product was transferred to a glass fiber filter plate and washed with 75 mM H3PO4 several times. The presence of radioactive lipid product (PIP3) was measured by adding Wallac Optiphase mix to each well and counting in a Wallac 1450 Trilux plate reader (PerkinElmer Life Sciences Inc., Boston, Mass. 02118). The IC50 for each compound tested is reported in μM in Table 1: […]
# T1 sequence (P48736 whole entry, species assumed): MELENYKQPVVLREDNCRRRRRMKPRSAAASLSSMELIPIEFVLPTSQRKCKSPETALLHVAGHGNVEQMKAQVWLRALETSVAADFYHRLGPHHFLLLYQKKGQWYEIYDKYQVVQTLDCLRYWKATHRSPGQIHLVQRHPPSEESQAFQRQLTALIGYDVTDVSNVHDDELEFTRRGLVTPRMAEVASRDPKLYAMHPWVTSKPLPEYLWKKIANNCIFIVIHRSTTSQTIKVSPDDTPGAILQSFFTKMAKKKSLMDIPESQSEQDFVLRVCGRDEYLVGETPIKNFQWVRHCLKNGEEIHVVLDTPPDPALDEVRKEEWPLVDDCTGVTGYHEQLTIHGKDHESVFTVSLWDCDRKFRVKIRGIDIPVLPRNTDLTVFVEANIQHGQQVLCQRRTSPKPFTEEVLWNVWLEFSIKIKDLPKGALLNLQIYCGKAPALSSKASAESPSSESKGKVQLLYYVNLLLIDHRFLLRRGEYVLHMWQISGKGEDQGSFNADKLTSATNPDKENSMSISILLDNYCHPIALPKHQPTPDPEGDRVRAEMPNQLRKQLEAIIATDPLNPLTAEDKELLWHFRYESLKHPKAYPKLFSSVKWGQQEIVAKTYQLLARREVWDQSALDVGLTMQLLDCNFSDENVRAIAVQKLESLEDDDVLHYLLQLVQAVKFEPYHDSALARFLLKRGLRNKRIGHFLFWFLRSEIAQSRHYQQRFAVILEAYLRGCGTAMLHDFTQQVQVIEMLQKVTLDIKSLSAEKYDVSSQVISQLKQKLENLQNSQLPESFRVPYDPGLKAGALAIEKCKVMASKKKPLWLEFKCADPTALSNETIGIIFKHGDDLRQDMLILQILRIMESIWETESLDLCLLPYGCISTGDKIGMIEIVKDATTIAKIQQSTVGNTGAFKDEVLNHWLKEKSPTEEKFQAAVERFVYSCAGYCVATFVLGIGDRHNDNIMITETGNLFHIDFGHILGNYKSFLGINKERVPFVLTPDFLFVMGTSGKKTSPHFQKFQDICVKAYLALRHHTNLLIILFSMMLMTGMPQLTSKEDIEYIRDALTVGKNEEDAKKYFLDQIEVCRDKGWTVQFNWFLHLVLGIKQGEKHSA
# T1 sequence (Q8WYR1 whole entry partner, species assumed): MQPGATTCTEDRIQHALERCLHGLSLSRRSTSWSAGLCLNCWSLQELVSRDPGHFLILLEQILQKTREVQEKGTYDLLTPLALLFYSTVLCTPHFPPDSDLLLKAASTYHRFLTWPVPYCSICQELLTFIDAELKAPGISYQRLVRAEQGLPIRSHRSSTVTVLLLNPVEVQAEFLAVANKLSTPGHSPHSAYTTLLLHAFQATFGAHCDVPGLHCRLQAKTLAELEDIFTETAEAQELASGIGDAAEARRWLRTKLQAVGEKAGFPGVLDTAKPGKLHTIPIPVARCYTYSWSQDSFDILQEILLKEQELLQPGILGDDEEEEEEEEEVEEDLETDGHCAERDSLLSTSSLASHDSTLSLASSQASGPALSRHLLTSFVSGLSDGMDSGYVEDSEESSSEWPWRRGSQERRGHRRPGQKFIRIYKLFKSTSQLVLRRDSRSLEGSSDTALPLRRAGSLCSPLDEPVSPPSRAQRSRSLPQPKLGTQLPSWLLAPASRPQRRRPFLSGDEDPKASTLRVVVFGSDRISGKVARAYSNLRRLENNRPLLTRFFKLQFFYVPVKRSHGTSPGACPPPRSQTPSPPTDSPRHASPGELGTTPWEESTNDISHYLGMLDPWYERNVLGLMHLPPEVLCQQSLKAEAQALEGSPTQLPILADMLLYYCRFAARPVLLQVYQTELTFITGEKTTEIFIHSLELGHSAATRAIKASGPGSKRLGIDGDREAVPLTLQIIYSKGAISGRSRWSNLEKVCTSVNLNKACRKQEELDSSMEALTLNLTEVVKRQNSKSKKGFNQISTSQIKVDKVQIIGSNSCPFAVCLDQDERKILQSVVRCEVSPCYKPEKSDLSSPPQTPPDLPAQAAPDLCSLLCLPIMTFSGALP
row,Compound,IC50 [µM]
1,"COc1cc2c(OC3CCCCC3)c(C(=O)Nc3nn[nH]n3)sc2cc1C [Example 6, 3-Cyclohexyloxy-5-methoxy-6-methyl-benzo[b]thiophene-2-carboxylic acid (2H-tetrazol-5-yl)-amide]",0.007
2,"COc1cc2c(OC3CCCC(C)C3)c(C(=O)Nc3nn[nH]n3)sc2cc1C (single isomer, unassigned) [Example 2, 5-Methoxy-6-methyl-3-(3-methyl-cyclohexyloxy)-benzo[b]thiophene-2-carboxylic acid (2H-tetrazol-5-yl)-amide]",0.024
3,"COc1cc2sc(C(=O)Nc3nnn[nH]3)c(OCC3CC3)c2cc1OC [Example 35, 3-Cyclopropylmethoxy-5,6-dimethoxy-benzo[b]thiophene-2-carboxylic acid (1H-tetrazol-5-yl)-amide]",0.35
4,"COc1cc2c(OC3CCOCC3)c(C(=O)Nc3nn[nH]n3)sc2cc1C [Example 1, 5-Methoxy-6-methyl-3-(tetrahydro-pyran-4-yloxy)-benzo[b]thiophene-2-carboxylic acid (2H-tetrazol-5-yl)-amide]",0.024
5,"COc1cc2c(OC3CCCC(C)(C)C3)c(C(=O)Nc3nn[nH]n3)sc2cc1C (stereo not drawn) [Example 5, 3-(3,3-Dimethyl-cyclohexyloxy)-5-methoxy-6-methyl-benzo[b]thiophene-2-carboxylic acid (2H-tetrazol-5-yl)-amide]",0.008
6,"COc1cc2c(OC3CCCN(C(C)=O)C3)c(C(=O)Nc3nn[nH]n3)sc2cc1C (stereo not drawn) [Example 13, 3-(1-Acetyl-piperidin-3-yloxy)-5-methyoxy-6-methyl-benzo[b]thiophene-2-carboxylic acid (2H-tetrazol-5-yl)-amide]",0.072
7,"COc1cc2sc(C(=O)Nc3nnn[nH]3)c(OC3CC(C)CC(C)C3)c2cc1OC (stereo not drawn) [Example 24, 3-(3,5-dimethyl-cyclohexyloxy)-5,6-dimethoxy-benzo[b]thiophene-2-carboxylic acid (2H-tetrazol-5-yl)-amide]",0.103
8,"COc1cc2c(OC3CC(C)(C)CC(C)(C)C3)c(C(=O)Nc3nn[nH]n3)sc2cc1C [Example 3, 5-Methoxy-6-methyl-3-(3,3,5,5-tetramethyl-cyclohexyloxy)-benzo[b]thiophene-2-carboxylic acid (2H-tetrazol-5-yl)-amide]",0.165
9,"COc1cc2sc(C(=O)Nc3nnn[nH]3)c(OC3CCC3)c2cc1OC [Example 40, 3-Cyclobutoxy-5,6-dimethoxy-benzo[b]thiophene-2-carboxylic acid (1H-tetrazol-5-yl)-amide]",0.092
10,"COc1cc2sc(C(=O)Nc3nnn[nH]3)c(OC3CCC(C)C3)c2cc1OC (stereo not drawn) [Example 31, 5,6-Dimethoxy-3-(3-methyl-cyclopentyloxy)-benzo[b]thiophene-2-carboxylic acid (1H-tetrazol-5-yl)-amide]",0.063
11,"COc1cc2c(OCC3(C)CC3)c(C(=O)Nc3nn[nH]n3)sc2cc1C [Example 18, 5-Methoxy-6-methyl-3-(1-methyl-cyclopropylmethoxy)-benzo[b]thiophene-2-carboxylic acid (2H-tetrazol-5-yl)-amide]",0.02
12,COc1cc2c(OC3CCCN(C(=O)OC(C)(C)C)C3)c(C(=O)Nc3nn[nH]n3)sc2cc1C (stereo not drawn) [Example 14],0.053
13,"COc1cc2sc(C(=O)Nc3nnn[nH]3)c(OCC3CCCC3)c2cc1OC [Example 43, 3-Cyclopentylmethoxy-5,6-dimethoxy-benzo[b]thiophene-2-carboxylic acid (1H-tetrazol-5-yl)-amide]",0.101
14,"COc1cc2c(OC3CCNCC3)c(C(=O)Nc3nn[nH]n3)sc2cc1C [Example 12, 5-Methoxy-6-methyl-3-(piperidiny-4yloxy)-benzo[b]thiophene-2-carboxylic acid (2H-tetrazol-5-yl)amide]",0.715
15,"COc1cc2sc(C(=O)Nc3nnn[nH]3)c(OC3CCOCC3)c2cc1OC [Example 41, 5,6-Dimethoxy-3-(tetrahydro-pyran-4-yloxy)-benzo[b]thiophene-2-carboxylic acid (1H-tetrazol-5-yl)-amide]",0.083
16,"COc1cc2c(OC3CCCC(C)C3)c(C(=O)Nc3nn[nH]n3)sc2cc1C (single isomer, unassigned) [Example 7, 5-Methoxy-6-methyl-3-(3-methyl-cyclohexyloxy)-benzo[b]thiophene-2-carboxylic acid (2H-tetrazol-5-yl)-amide]",0.003
17,"COc1cc2sc(C(=O)Nc3nnn[nH]3)c(OCC3CCC3)c2cc1OC [Example 38, 3-Cyclobutylmethoxy-5,6-dimethoxy-benzo[b]thiophene-2-carboxylic acid (1H-tetrazol-5-yl)-amide]",0.072
18,"COc1cc2sc(C(=O)Nc3nnn[nH]3)c(OC3CCCCC3C)c2cc1OC (stereo not drawn) [Example 26, 5,6-Dimethoxy-3-(2-methyl-cyclohexyloxy)-benzo[b]thiophene-2-carboxylic acid (1H-tetrazol-5-yl)-amide]",0.101
19,"COc1cc2c(OCCCC3CCCCC3)c(C(=O)Nc3nn[nH]n3)sc2cc1C [Example 15, 3-(3-Cyclohexyl-propoxy)-5-Methoxy-6-methyl-benzo[b}thiophene-2-carboxylic acid (2H-tetrazol-5-yl)amide]",0.028
20,"COc1cc2c(OC3CCN(Cc4ccccc4)CC3)c(C(=O)Nc3nn[nH]n3)sc2cc1C [Example 9, 3-(1-Benzyl-piperidin-4-yloxy)-5-methoxy-6-methyl-benzo[b]thiophene-2-carboxylic acid (2H-tetrazol-5-yl)-amide]",0.25
21,"COc1cc2sc(C(=O)Nc3nnn[nH]3)c(OCC3C4CCC(C4)C3C)c2cc1OC (stereo not drawn) [Example 29, 5,6 Dimethoxy-3-(3-methyl-bicyclo[2.2.1]hept-2-ylmethoxy)-benzo[b]thiophene-2-carboxylic acid (1H-tetrazol-5-yl)-amide]",0.014
22,"COc1cc2sc(C(=O)Nc3nnn[nH]3)c(OCC3CCCCC3)c2cc1OC [Example 21, 3-Cyclohexylmethoxy-5,6-dimethoxy-benzo[b]thiophene-2-carboxylic acid (1H-tetrazol-5-yl)-amide]",0.195
23,COc1cc2c(OC3CCCNC3)c(C(=O)Nc3nn[nH]n3)sc2cc1C (stereo not drawn) [Example 10],1.29
24,"COc1cc2sc(C(=O)Nc3nnn[nH]3)c(OC3CCOC3)c2cc1OC (stereo not drawn) [Example 27, 5,6-Dimethoxy-3-(tetrahydro-furan-3-yloxy)-benzo[b]thiophene-2-carboxylic acid (1H-tetrazol-5-yl)-amide]",0.575
